One series deals with T1, PpKTFusion (Pseudomonas putida, UniProt Q88J67).
T1 construct: gene PP_2782; full-length fusion (N-terminal TAm 1-526, linker 527-562, C-terminal reductase 563-959); N-terminal His6-tag, pET-28a(+), E. coli
T1 sequence (Q88J67 1-959): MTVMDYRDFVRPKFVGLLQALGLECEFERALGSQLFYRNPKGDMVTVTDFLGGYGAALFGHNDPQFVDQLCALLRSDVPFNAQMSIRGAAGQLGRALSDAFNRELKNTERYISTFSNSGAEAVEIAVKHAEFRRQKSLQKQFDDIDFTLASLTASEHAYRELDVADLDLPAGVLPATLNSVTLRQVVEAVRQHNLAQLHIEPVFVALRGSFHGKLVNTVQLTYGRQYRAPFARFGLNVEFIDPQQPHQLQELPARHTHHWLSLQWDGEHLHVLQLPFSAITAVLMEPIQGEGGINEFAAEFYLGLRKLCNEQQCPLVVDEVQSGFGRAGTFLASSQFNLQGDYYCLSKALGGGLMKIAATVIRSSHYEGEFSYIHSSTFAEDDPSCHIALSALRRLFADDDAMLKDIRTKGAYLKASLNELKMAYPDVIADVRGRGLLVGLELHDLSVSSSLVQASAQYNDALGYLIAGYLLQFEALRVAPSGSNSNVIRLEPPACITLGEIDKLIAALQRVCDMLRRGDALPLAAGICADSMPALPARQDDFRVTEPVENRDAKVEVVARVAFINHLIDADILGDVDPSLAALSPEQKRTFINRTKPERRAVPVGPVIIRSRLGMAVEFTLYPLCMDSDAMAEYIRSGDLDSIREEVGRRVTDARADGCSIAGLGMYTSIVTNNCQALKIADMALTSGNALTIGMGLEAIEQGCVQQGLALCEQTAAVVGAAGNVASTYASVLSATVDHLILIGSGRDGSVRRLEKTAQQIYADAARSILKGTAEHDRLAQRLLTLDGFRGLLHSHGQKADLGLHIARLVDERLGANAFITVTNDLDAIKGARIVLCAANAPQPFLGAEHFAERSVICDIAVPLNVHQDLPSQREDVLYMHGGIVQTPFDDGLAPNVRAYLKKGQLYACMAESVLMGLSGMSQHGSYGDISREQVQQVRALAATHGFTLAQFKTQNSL
The series can be described thus: HPLC conversion of […] to […], non-linear regression to substrate inhibition equation. The class given is biochemical. The following applies: apparent, amine donor L-glutamate, 1.0 mM PLP, HEPES pH 7.7, 10% DMSO, 30 °C (conditions of Fig. 7F).

The next series addresses T2, TfFusion (Thermincola carboxydiphila, UniProt A0A0L6W1G2).
T2 construct: gene Tfer_2018; full-length fusion; N-terminal His6-tag, pET-28a(+), E. coli
The series is described as above. In kind it is biochemical. The following applies: apparent, amine donor L-glutamate, 1.0 mM PLP, HEPES pH 7.7, 10% DMSO, 50 °C (conditions of Fig. 7F).

The target of a further series is T3, PpKTTAm (Pseudomonas putida, UniProt Q88J67).
T3 construct: gene PP_2782; truncated to N-terminal TAm domain (assigned residues 1-526); N-terminal His6-tag, pET-28a(+), E. coli
T3 sequence (Q88J67 1-526): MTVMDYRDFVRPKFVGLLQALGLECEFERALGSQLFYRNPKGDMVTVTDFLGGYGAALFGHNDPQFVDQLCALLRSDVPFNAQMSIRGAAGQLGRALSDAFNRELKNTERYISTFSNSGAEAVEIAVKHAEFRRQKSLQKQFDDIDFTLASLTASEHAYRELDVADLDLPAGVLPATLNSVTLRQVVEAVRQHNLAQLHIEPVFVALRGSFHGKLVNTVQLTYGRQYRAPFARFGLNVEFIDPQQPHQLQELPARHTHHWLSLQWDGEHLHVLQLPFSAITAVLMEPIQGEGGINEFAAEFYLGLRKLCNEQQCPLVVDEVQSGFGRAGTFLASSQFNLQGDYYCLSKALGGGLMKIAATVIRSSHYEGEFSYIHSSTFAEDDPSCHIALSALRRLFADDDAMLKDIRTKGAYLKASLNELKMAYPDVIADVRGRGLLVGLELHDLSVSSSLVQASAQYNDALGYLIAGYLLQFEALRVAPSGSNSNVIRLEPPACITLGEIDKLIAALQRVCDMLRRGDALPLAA
The series is described as above. In kind it is biochemical. The following applies: apparent, amine donor L-glutamate, 1.0 mM PLP, HEPES pH 7.7, 10% DMSO, 30 °C (conditions of Fig. 7F).

The next series has as its target T4, TfTAm (Thermincola carboxydiphila, UniProt A0A0L6W1G2).
T4 construct: gene Tfer_2018; truncated to N-terminal TAm domain (borders only in ESI); N-terminal His6-tag, pET-28a(+), E. coli
The series can be described thus: HPLC conversion of […] to […], non-linear regression. The class given is biochemical. The following applies: apparent; amine acceptor 3-phenylpropionaldehyde (10 mM), 1.0 mM PLP, HEPES pH 7.7, 10% DMSO, 50 °C (conditions of Fig. 7E); read-out: K ^app m.

Substrate in series [1]: N[C@@H](CCC(=O)O)C(=O)O
Description: purified protein. The class given is biochemical, Thermincola carboxydiphila. The following applies: apparent, amine acceptor 3-phenylpropionaldehyde (10 mM), 1.0 mM PLP, HEPES pH 7.7, 10% DMSO, 50 °C (conditions of Fig. 7E).

Substrate in series [2]: O=CCCc1ccccc1
Description: purified protein. As to conditions: apparent, amine donor L-glutamate, 1.0 mM PLP, HEPES pH 7.7, 10% DMSO, 50 °C (conditions of Fig. 7F). The class given is biochemical, Thermincola carboxydiphila.

For `O=CCCc1ccccc1` [compound 13, 3-phenylpropionaldehyde], the “K ^app i” value on PpKTFusion was 3.37 µM; at TfFusion it was 52.92 µM; at PpKTTAm, 5.13 µM.
With `N[C@@H](CCC(=O)O)C(=O)O` [compound 36, L-glutamate], the Km on TfTAm was determined as 9.57 mM.

B1: TfFusion (Thermincola carboxydiphila) (protein)
chain: MKFSSLNPTMDKLFECFKLDVAYVKGEGTYLYDQAGNKYLDFIAQYGAVPFGYNPPELVAAAKKYFDLSLPSMVQPSIPVKAVELAEMLLQLAPGEMAQATFCQSGAEAVEVAIKLARSTTGKPKILSTKNSFHGKTMGALSATGRDVYQKPFFTPVPGFEHIPFGDLDMLENKMRTEGKQIAAFLVEPIQGEGGIIVPPEGYLKNAEIICRKYGVLLAVDEIQTGLGRTGELFACDREGVEPDILLLSKALGGGLVPLGVCLSTRQAWNEEFGRLHSSTFANNNFTCAIGLAVLNKLLENGRQLINNAKSAGNYLLKNLEDINRQYPGVIKEIRGRGLMLGLEFNEFDGSESFSMKYLAEQGGFSPLLAGYLLNVHKVRVAPFLNNPMTLRLQPSLTVATVEIDRALHGLERVVKALYYQDHCELYSYIIGKEPGPIRDFRSEKKAVTGSELLPEEKPTEKFAFLIHYPSSEDVIKNNPSFKKASKDILEKLIDWEASLDAEPEVIVHLPAIKSKAGKIAEGWLIGIPYSGRHMMEMPRKDAVKVLVTALDKAKALGARIVGLGAYTSVVSRGGSDLQGKGIAVTSGNSYTIATAFDALIEGARLMGIDPAESTGCVIGATGSIGRVCAILLAEEIDKLVLVGNPEKEKTSLRRMEQLADEIYTRAFREILAYKGKVAKIKGIAKWLKGFLDRKRKDDPEVWNKLLTALENQGFSINGYIHENLAAKGKYSNPPVKITVNIKQALLQSDLIISASNSTNHLIGPGHLKPGSVICDVARPPDVSEAVLEQRKDVLVIEGGLVQYPDDICFGQNMGYEPGVNMACLSETMLLALEGTYRDFSIGLKIPVENVYYLRELAQRHGFKLATPWNKNGGVTPEVARMIKEAALKNENVEKIKTPKSS
notes: full-length fusion; N-terminal His6-tag, pET-28a(+), E. coli
For orientation: kcat means the maximal rate divided by the concentration of active sites. As to B1, in the series “purified protein [1]”, the Km stood at 16.44 mM and the kcat amounted to 0.2672 s⁻¹. Also, in the series “purified protein [2]”, the Km is 50.61 mM and the kcat stood at 1.171 s⁻¹.

These data come from paper PMC10829540, “Natural transaminase fusions for biocatalysis” (RSC Advances, 2024).
